# Experimental data reported in patent US12194080B2, “Methods for identification, assessment, prevention, and treatment of metabolic disorders using PM20D1 and N-lipidated amino acids” (Dana-Farber Cancer Institute, Inc., priority 2015, dated 2025).
# Assays:
# C2C12 cells = experiment: Cellular oxygen consumption rate (uncoupled respiration), C2C12 cells; assay type: cell-based, mouse; settings: 50 μM, after oligomycin 1 μM
# Protocol: C2C12, U2O5, and 293A cells were cultured in DMEM with 10% FBS and pen/strep. Primary inguinal (iWAT) and brown (BAT) adipocytes were obtained as follows. The stromal-vascular fraction of inguinal (iWAT) pad from 4-12 week old male mice was dissected, minced, and digested for 45 min. at 37° C. in PBS containing 10 mM CaCl2, 2.4 U/ml dispase II (Roche), and 1.5 U/ml collagenase D (Roche). The stromal-vascular fraction of brown fat (BAT) pads from newborn (P1-P14) pups was dissected, minced, and digested for 45 min at 37° C. in PBS containing 1.3 mM CaCl2, 120 mM NaCl, 5 mM KCl, 5 mM glucose, 100 mM HEPES, 4% BSA, and 1.5 mg/ml collagenase B (Roche). Digested tissue was diluted with adipocyte culture media (DMEM/F-12, GlutaMAX™ supplement, Life Technologies, with 10% FBS and pen/strep) and centrifuged (600×g for 10 min.). The pellet was resuspended in 10 ml adipocyte culture media, strained through a 40 μm filter, and plated. Differentiation was induced by application of an adipogenic cocktail containing 5 μg/ml insulin (Sigma), 5 μM dexamethasone (Sigma), 250 μM isobutylmethylxanthine (Sigma), and 1 μM rosiglitazone (Cayman) for 2 days. Two days after induction, cells were maintained in adipocyte culture media containing 5 μg/ml insulin and 1 μM rosiglitazone.
# Cellular oxygen consumption rates were determined using an XF24 Extracellular Flux Analyzer (Seahorse Biosciences). Oligomycin was purchased from EMD Millipore, and FCCP and rotenone were purchased from Sigma. C2C12 or U2OS cells were seeded at 30,000 or 50,000 cells/well, respectively in an XF24 cell culture microplate (V7-PS, Seahorse Bioscience) and analyzed the following day. Primary iWAT or BAT adipocytes were seeded at 15,000 cells/well, differentiation was induced the following day as described, and the cells were analyzed on day 5. On the day of analysis, the cells were washed once with Seahorse respiration buffer (8.3 g/1 DMEM, 1.8 g/l NaCl, 1 mM pyruvate, 20 mM glucose, pen/strep), placed in 0.5 ml Seahorse respiration buffer, and incubated in a CO2-free incubator for 1 hr. Port injection solutions were prepared as follows (final concentrations in assay in parentheses): 10 μM oligomycin (1 μM final), […] amino acid (50 μM final), 2 μM FCCP (0.2 μM final), and 30 μM rotenone (3 μM final). The Seahorse program was run as follows: basal measurement, 3 cycles; inject port A (oligomycin), 3 cycles; inject port B (compounds), 8 cycles; inject port C (FCCP), 3 cycles; inject port D (rotenone), 3 cycles. Each cycle consisted of mix 4 min, wait 0 min, and measure 2 min. For data expressed as a percentage of oligomycin-treated basal, the respiration at cycle 6 was normalized to 100%, and the maximum respiration at any time point between cycles 7 and 15 inclusive was used.
# [1] = tested on: Diet induced obese (DIO) mice; experiment: Chronic daily i.p. administration of N-acyl amino acids to DIO mice (body weight, food intake, body composition, GTT); assay type: in vivo, mouse
# Protocol: (§1) Animal experiments were performed according to procedures approved by the Beth Israel Deaconess Medical Center IACUC. Mice were maintained in 12 h light-dark cycles at 22° C. and fed a standard irradiated rodent chow diet. All experiments on wild-type mice were performed with male C57BL/6 mice purchased from Jackson Laboratories, except for the AAV experiments, which were performed with male C57BL/6 mice from Charles River. UCP1-KO (stock #017476) and 16-20 week DIO mice (stock #380050) were obtained from Jackson Laboratories. For AAV injection experiments, mice were gently warmed using a 250 W clear infrared heat lamp, immobilized, and injected via tail vein with 10^10 virus/mouse (diluted in saline) in a total volume of 100 μl/mouse. Where indicated, mice were placed on high-fat diet (60% fat, Research Diets). For cold exposure experiments, mice were group housed and placed at 4° C. for the indicated times. For the preparation of C18:1-Phe for in vivo injections, compounds were dissolved in 18:1:1 v/v/v saline:Kolliphor® EL (Sigma Aldrich):DMSO and sonicated until homogeneous. Mice were administered compounds at 5 μl/g body weight at the indicated doses. For all injection experiments, mice were mock injected with saline daily for 3 days prior to the start of the experiments. For glucose tolerance tests (GTTs), mice received their final dose of compound the day prior to the assay and were then fasted overnight. Glucose was administered at 1.5 g/kg.
# (§2) Energy expenditure, O2 consumption, CO2 production, respiratory exchange ratio, total locomotor activity, and food intake measurements were made with a 16-cage Columbus Instruments Oxymax Comprehensive Lab Animal Monitoring System (CLAMS) at ambient room temperature (21-23° C.). Mice were acclimated for one day in metabolic cages prior to data collection. Whole-body composition was assessed with an EchoMRI™ 3-in-1 on conscious mice.
# [2] = tested on: Diet induced obese (DIO) mice; experiment: Indirect calorimetry (CLAMS) of high fat diet/DIO mice treated with N-acyl amino acids; assay type: in vivo, mouse
# Protocol: as §1, §2
# [3] = daily i.p.: C18:1-Leu 25, C18:1-Phe 30, C20:4-Gly 15 mg/kg/day
compound,measurement,setting,value
"CCCCCCCC/C=C\CCCCCCCC(=O)N[C@@H](CC(C)C)C(=O)O [C18:1-Leu, Oleoyl-L-leucine]",uncoupling activity (uncoupled respiration),C2C12 cells,significantly more potent than the free fatty acid alone
same,reduction of food intake versus vehicle-treated mice,"[1]; 25 mg/kg, i.p., daily",17%
same,body weight lost,"[1]; 25 mg/kg, i.p., daily, after 8 days treatment, mean±SEM",4.1 ± 0.3 g
same,body composition analysis (weight loss),"[1]; 25 mg/kg/day i.p., MRI",entirely accounted for by a difference in fat mass
same,GTT,"[1]; 25 mg/kg/day i.p., glucose 1.5 g/kg, versus vehicle- or oleate-treated mice",improvements
same,RER,[2]; C18:1-Leu 25 mg/kg/day i.p.,significantly lower
same,VCO2,[2]; C18:1-Leu 25 mg/kg/day i.p.,significantly augmented
same,food intake over the final two days of the experiment,"[2]; C18:1-Leu 25 mg/kg/day i.p., metabolic cages",reduced food intake
same,VO2,[2]; [3],significantly augmented
same,movement,[2]; [3],slightly reduced
